Reference: patent US20050020580A1, “Materials and methods for the prevention or treatment of apoptosis and apoptosis-related diseases and conditions” (priority 2002, published 2005)
Like-named read-outs stand apart in the source and are kept apart here.

How the values were obtained:
[1] = NFV and RIT concentrations in brain tissues of mice given NFV/RIT suspension; assay type: in vivo; settings: 3 doses of NFV/RIT suspension, whole brain removed immediately preceding the fourth dose, two mice; for concentration at 8 h: C57BL/6, mouse, brain, oral
Method: Supernatants were then analyzed as described herein for drug level determination. […] Given the significant drug levels achieved in the brains of these mice, the effects of PI in a mouse model of stroke could be examined.

PTPC = PTPC proteoliposomes, 4-MUP fluorescence release; assay type: biochemical, rat; settings: increasing doses of NFV
Method: Liposome technology: PTPC (1 mg/ml) was separated from rat brains and ANT (0.1 mg/ml) from rat heart mitochondria as previously described (Brenner, C. et al. Methods Enzymol 322, 243-52, 2000; Marzo, I. et al. Biomed Pharmacother 52, 248-51, 1998). Immediately after purification, pure proteins were reconstituted into proteoliposomes (phosphatidylcholin/cholesterol [5:1;w:w] for PTPC and phosphatidylcholin/cardiolipin [45:1; w:w] for ANT) (Belzacq, A. S. et al. Cancer Res 63, 541-6, 2003). […] S. et al. Cancer Res 63, 541-6, 2003). 25 μl of proteoliposomes were incubated with the indicated agents (30 min for NFV and 60 min for ATR and Vpr52-96 at RT). […] The release of 4-MU was measured by spectrofluorimetry (excitation wave length 360 nm; emission wave length 450 nm). The maximum 4-MUP release was determined by adding 5% Triton X-100 to proteoliposomes. The percentage of 4-MUP release induced by treatment of liposomes by ATR was determined as [(ATR−treated liposomes fluorescence−untreated liposomes fluorescence)/(TX-100-treated liposomes fluorescence−untreated liposomes fluorescence)]×100. The maximal fluorescence induced by 800 μM ATR was then identified as 100% 4-MUP release and the fluorescence induced by the treatment of liposomes by another product or another dose was calculated as a percentage of ATR-induced 4-MUP release.

Jurkat T cells [2] = assay: Apoptosis by selective PTPC agonists (ATR, STS, PK11195) in Jurkat T cells
Jurkat T cells [3] = assay: Fas signaling in Jurkat T cells stimulated with CH-11 anti-Fas antibody; assay type: cell-based
Description: Annexin-V and Propidium Iodide Staining. […] Western Blot Analysis. […] Fluorometric Caspase 8 and 3 Activity.

Eschericheria coli = assay: Minimal inhibitory concentration (MIC), NCCLS guidelines; assay type: cell-based; settings: five clinical isolates
Pseudomonas aeruginosa = assay: as above
Streptococcus bovis = assay: as above; settings: Streptococcus equinus
ANT = molecular target: T1, ANT (Rattus norvegicus, UniProt Q05962); assay: ANT proteoliposomes, 4-MUP fluorescence release; assay type: biochemical; settings: p<0.05
T1 construct: ANT (0.1 mg/ml) from rat heart mitochondria; from tissue; host or cells: rat heart mitochondria
T1 sequence (Q05962 1-298): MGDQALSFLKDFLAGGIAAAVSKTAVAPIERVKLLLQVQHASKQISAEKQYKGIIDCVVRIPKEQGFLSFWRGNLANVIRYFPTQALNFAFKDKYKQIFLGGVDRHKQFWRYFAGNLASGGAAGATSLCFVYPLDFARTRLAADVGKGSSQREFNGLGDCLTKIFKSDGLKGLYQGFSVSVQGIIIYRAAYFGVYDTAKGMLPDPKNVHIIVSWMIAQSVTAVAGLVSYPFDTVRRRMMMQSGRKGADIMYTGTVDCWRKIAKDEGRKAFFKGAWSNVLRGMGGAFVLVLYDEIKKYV
Method: Liposome technology: PTPC (1 mg/ml) was separated from rat brains and ANT (0.1 mg/ml) from rat heart mitochondria as previously described (Brenner, C. et al. Methods Enzymol 322, 243-52, 2000; Marzo, I. et al. Biomed Pharmacother 52, 248-51, 1998). Immediately after purification, pure proteins were reconstituted into proteoliposomes (phosphatidylcholin/cholesterol [5:1;w:w] for PTPC and phosphatidylcholin/cardiolipin [45:1; w:w] for ANT) (Belzacq, A. S. et al. Cancer Res 63, 541-6, 2003). […] The release of 4-MU was measured by spectrofluorimetry (excitation wave length 360 nm; emission wave length 450 nm). The maximum 4-MUP release was determined by adding 5% Triton X-100 to proteoliposomes. The percentage of 4-MUP release induced by treatment of liposomes by ATR was determined as [(ATR−treated liposomes fluorescence−untreated liposomes fluorescence)/(TX-100-treated liposomes fluorescence−untreated liposomes fluorescence)]×100. The maximal fluorescence induced by 800 μM ATR was then identified as 100% 4-MUP release and the fluorescence induced by the treatment of liposomes by another product or another dose was calculated as a percentage of ATR-induced 4-MUP release.

[4] = co-administration of RIT with NFV in human subjects (Raines et al.); cited from earlier work
[5] = Mouse pharmacokinetic studies: plasma drug concentrations by LC/MS/MS; assay type: in vivo, mice (BALB/C); settings: oral
Method: Administration of PI for Experimental Protocols: Six to eight-week-old BALB/C mice (Jackson Labs, Bar Harbor, Me.) were acclimatized for one week before receiving either control vehicle or PI by gavage. PIs were prepared by dissolving 1% weight per volume carboxymethylcellulose and 15 mg/mL Nelfinavir (NFV) oral powder (commercial preparation, Agouron Laboratories, La Jolla, Calif.) in 2% ethanol in distilled water. […] The PI mixture was administered every 8 hours for the indicated number of doses and mice were either sacrificed for pharmacokinetic studies or treated as described. Histopathology was performed by a consulting veterinary pathologist who was blinded as to the nature of experimental treatments.
Immediately preceding the fourth dose and every two hours post gavage until hour 8, plasma drug concentrations were assayed. At both doses, NFV was undetectable (i.e. <2.5 ng/mL) 6 hours after dosing.
Drug levels were assessed in two mice each for several time-points. NFV levels were 8172 and 8914 ng/mL at 1 hour, 5999 and 6006 ng/mL at 2 hours, 5559 and 6048 ng/mL at 3 hours, and 4005 to 4217 ng/mL at 4 hours post-dosing.

RAW264.7 cells = assay type: cell-based, mouse
Enterococcus = assay: Minimal inhibitory concentration (MIC), NCCLS guidelines
wild type yeast = assay: Yeast clonogenic assay of apoptosis (Vpr peptide or H2O2); assay type: cell-based, Saccharomyces cerevisiae; settings: varying doses
hepatocytes = assay: Fas signaling ex vivo in hepatocytes from mice challenged with IV Jo-2; settings: hepatocytes from pretreated mice
Method: Hepatocyte isolation: Four hours after treatment with 7.5 μg of Jo-2 antibody, mice were euthanized with pentobarbital (60 mg/kg, Abbott), and hepatocytes isolated via a two-step collagenase digestion (Seglen, P. O. Methods Cell Biol 13, 29-83, 1976). Following red cell lysis, hepatocytes were enumerated and evaluated for loss of ΔΨm, and caspase 8 and 3 activity. Fluorometric Caspase 8 and 3 Activity.

CC(C)c1nc(CN(C)C(=O)N[C@H](C(=O)N[C@@H](Cc2ccccc2)C[C@H](O)[C@H](Cc2ccccc2)NC(=O)OCc2cncs2)C(C)C)cs1 [RIT, ritonavir]
RIT levels in brain tissue [1]: 32 μg/gm of brain tissue
concentration at 8 h ([1]; RIT levels in brain tissue): 38000 ng/g

Cc1c(O)cccc1C(=O)N[C@@H](CSc1ccccc1)[C@H](O)CN1C[C@H]2CCCC[C@H]2C[C@H]1C(=O)NC(C)(C)C [NFV, nelfinavir]
ATR induced fluorescence release from PTPC liposomes (PTPC): progressively inhibited
PK11195 induced apoptosis, ΔΨm, cytochrome c release, caspase 9, caspase 3 and PARP cleavage (Jurkat T cells [2]; PBR agonist PK11195, NFV pretreated): not altered
STS induced apoptosis, ΔΨm, cytochrome c release, caspase 9, caspase 3 and PARP cleavage (Jurkat T cells [2]; VDAC agonist STS, NFV pretreated): not altered
Procaspase 8 cleavage and activity, and Bid cleavage vs vehicle control cells (Jurkat T cells [3]; NFV pretreated, CH-11): similar
ΔΨm (loss of DiOC6 retention), cytochrome c release, caspase 9, and caspase 3 cleavage and activity (Jurkat T cells [3]; NFV pretreatment, CH-11): reduced
Apoptosis (Annexin positivity) after CH-11 anti-CD95 antibody (Jurkat T cells [3]; NFV pretreatment, varying concentrations): dose-dependent reduction in apoptosis
Levels of NFV in brain tissue [1]: 986 μg/gm of brain tissue
concentration at 8 h ([1]; read-out: Levels of NFV in brain tissue): 682000 ng/g
MIC (Eschericheria coli): > 10 µM
MIC (Pseudomonas aeruginosa): > 10 µM
MIC (Streptococcus bovis): > 10 µM
ATR induced release of fluorescence from ANT liposomes (ANT): inhibited
Vpr induced release of fluorescence from ANT liposomes (ANT): inhibited
Levels of NFV compared to NFV alone [4]: significantly increased
concentration at 6 h ([5]; BALB/C, NFV alone, 125 mg/kg or 250 mg/kg every 8 hours by gavage, BALB/C mice, read-out: NFV plasma drug concentration 6 hours after dosing): < 2.5 ng/mL
Cmax ([5]; pharmacokinetic studies in mice (data not shown)): ~8 µM
Apoptosis induced by PA and LT (RAW264.7 cells): significantly inhibited in a dose responsive manner
MIC (Enterococcus): > 10 µM
Apoptosis induced by H2O2 (viability) (wild type yeast): inhibited in a dose responsive manner
Apoptosis induced by Vpr (viability) (wild type yeast): inhibited in a dose responsive manner
ΔΨm loss (hepatocytes): inhibited
